Laboratory results from patent US20090311795A1, “BILATERAL CONTROL OF FUNCTIONS TRADITIONALLY REGULATED BY ONLY SEROTONIN OR ONLY DOPAMINE” (priority 2002, published 2009).

Key:
Format in all cases: in vivo, human
[1] = tested on: urinary serotonin or dopamine; test: Phase (1, 2, 3) of urinary monoamine response to amino acid precursor dosing, from serial urinary assays; settings: for amino acid dosing change required to move between phase 1 and phase 3, much larger changes / amino acid dosing change that moved subjects between phase 1 and phase 3, very small changes: 5-HTP with L-Tyrosine or L-Dopa; for amino acid dosing change required to move between phase 1 and phase 3, much larger changes: other subjects; for amino acid dosing change that moved subjects between phase 1 and phase 3, very small changes: some observed subjects
Text: However, according to certain embodiments, the predictability of determining an individual or group response of urinary serotonin and/or dopamine monoamine levels between two assays is possible when it is properly determined that the subject is in one of three phases of urinary monoamine response to amino acid precursor administration. As identified above, there are at least three phases (referred to as phase 1, phase 2, and phase 3) of urinary monoamine response to amino acid precursor administration. In phase 1, the urinary monoamine level drops as the total amino acid precursor dosing of serotonin and dopamine is increased. In phase 1, the urinary monoamine level increases as the total amino acid precursor dosing of serotonin and dopamine is decreased. In phase 2, the urinary monoamine level remains below the therapeutic range and relatively constant as the total amount of monoamine amino acid precursor dosing is increased or decreased. In order for urinary monoamines to be in phase 2, subtherapeutic urinary monoamine levels must exist. In phase 3, the urinary monoamine level increases as the total amount of amino acid precursor dosing is increased. In phase 3, the urinary monoamine level decreases as the total amount of amino acid precursor dosing is decreased.
In certain embodiments, the phase of the urinary monoamines in response to amino acid therapy can properly be determined by obtaining two laboratory assays on two separate days with the subject taking a different amino acid dosing of serotonin and catecholamine precursors for each test. In general, at least 7 days must elapse between amino acid dosing changes and laboratory assay, but shorter time periods may be indicated at the decision of the individual obtaining the test. The laboratory assays should also be performed on samples that are collected at least 3 to 5 days after the last change in amino acid precursor dosing or start in amino acid precursor dosing of the serotonin and dopamine monoamines. If during the first assay the subject was taking supplemental amino acid precursors of serotonin and dopamine monoamines, then it is preferable that the second assay is performed after the dosing of the supplemental amino acid precursors has changed. The change in supplemental amino acid precursor may be for the serotonin monoamine and/or the dopamine monoamine. If both of the supplemental amino acid precursors of the serotonin and dopamine monoamines are changed, it is preferable that the dosing of both supplemental amino acid precursors is increased or the dosing of both supplemental amino acid precursors is decreased. The subject also should have not missed any dosing of amino acid precursors in the 3 to 5 day period before the sample is collected.
1. Phase 1: • a. Where an increase in amino acid precursor dosing of either the serotonin amino acid precursor and/or the dopamine amino acid precursor causes a decrease in the second assay urinary serotonin or dopamine monoamine levels. • b. Where a decrease in amino acid dosing of either the serotonin amino acid precursor and/or the dopamine amino acid precursor causes an increase in the second assay urinary serotonin or dopamine monoamine levels.
2. Phase 2: • a. Where urinary serotonin and/or dopamine monoamine levels are less than the therapeutic range.
3. Phase 3: • a. Where an increase in amino acid precursor dosing of either the serotonin amino acid precursor and/or the dopamine amino acid precursor causes an increase in the second assay urinary serotonin or dopamine monoamine levels. • b. Where a decrease in the amino acid precursor dosing of either the serotonin amino acid precursor and/or the dopamine amino acid precursor causes a decrease in the second assay urinary serotonin or dopamine monoamine levels.

[2] = tested on: urinary dopamine; test: Urinary dopamine monoamine level assay (RIA, per gram of creatinine) under amino acid precursor dosing
Method: (§1) For monoamine testing of monoamines of The System, urine is collected approximately 5 to 6 hours prior onset of the sleep cycle and just prior to any amino acid dosing the subject may or may not be taking close to that time period. Once the urine sample is obtained, laboratory assay of the monoamine of The System are performed as well as a urinary creatinine assay and the results are reported in terms of micrograms of monoamine per gram of creatinine.
(§2) Referring now to the data summarized herein, the data is from a database of subjects who have been diagnosed by a licensed healthcare provider as having one or more monoamine dysfunction(s) associated with the serotonin and/or catecholamine systems. The database fields include: • 1. The monoamine diagnosis made by a licensed healthcare provider; • 2. Amino acid dosing of amino acid precursors of the serotonin and dopamine monoamines; • 3. Laboratory assay of urinary serotonin and catecholamine monoamine levels; • 4. The subject's sex; • 5. The subject's age and date of birth; • 6. The subject's weight; • 7. The subject's height; • 8. Any allergies the subject might have; • 9. Any medications (prescription and/or non-prescription) with dosing that the subject might be taking; • 10. Type of license held by the caregiver; and • 11. The subject's state and zip code of residence.
(§3) Also referring to the summarized date, the monoamine analysis performed was subjected to the following criteria: • 1. Urinary monoamine reference ranges reported by the laboratory were determined after precision and accuracy studies had validated initial calibration results; • 2. The reported reference ranges of the laboratory performing the assays were within ±2 standard deviations of the mean for the general population used in calibration; • 3. The reported reference ranges are for adults (18 years of age and older); • 4. Urinary monoamine samples were collected at least 3 to 4 hours after a subject took a dose of amino acid precursors; • 5. Urinary monoamine samples were collected 5 to 6 hours before the onset of the sleep cycle (bed time); • 6. […]

[3] = tested on: urinary serotonin; test: Urinary serotonin monoamine level assay (ELISA, per gram of creatinine) under amino acid precursor dosing
Method: as §1, §2, §3

`N[C@@H](Cc1c[nH]c2ccc(O)cc12)C(=O)O` [5-HTP, 5-hydroxytryptophan] was tested, and the “amino acid dosing change required to move between phase 1 and phase 3, much larger changes” value (from here on “amino acid dosing change required”) [1] was 900 mg, the “amino acid dosing change that moved subjects between phase 1 and phase 3, very small changes” value [1] was 37.5 mg and the “5-HTP dosing giving phase 3 therapeutic urinary serotonin level” value ([1]; Example 4, final assay, tyrosine increased) was 150 mg per day. For the same compound, the “change of 5-HTP dosing that moved urinary serotonin levels from phase 3 to phase 1” value ([1]; Example 6, between test 1 and test 2) was 150 mg per day, the “daily dosing at which the phase 2/phase 3 inflection point occurs” value ([1]; dose-response curve of one embodiment, urinary serotonin, balanced amino acids) was “approximately 800 milligrams per day” and the “daily dosing at the phase 2/phase 3 inflection point, low-dose subjects” value ([1]; subjects who experience the inflection point at low dose) was 50 milligrams per day. For the same compound, the “daily dosing at the phase 2/phase 3 inflection point, high-dose subjects” value ([1]; subjects without inflection point until this dose per day) was 1,500 milligrams and the “excretion of dopamine in phase 3 by the kidneys” value ([2]; administration of 5-HTP alone) was “marked increase”.
With `N[C@@H](Cc1ccc(O)c(O)c1)C(=O)O` [L-dopa, 1-3,4-dihydroxyphenylalanine, reference compound] the “amino acid dosing change required” value [1] was 900 mg, the “amino acid dosing change that moved subjects between phase 1 and phase 3, very small changes” value [1] was 60 mg and the urinary serotonin level ([3]; Example 2, one subject, increase in L-dopa between first and third assay) was “increased”. For the same compound, the “urinary excretion of serotonin in phase 3” value ([3]; addition of unopposed L-dopa) was “increases markedly”.
For `N[C@@H](Cc1ccc(O)cc1)C(=O)O` [L-Tyrosine], the “amino acid dosing change required” value [1] was 5,000 mg, the “amino acid dosing change that moved subjects between phase 1 and phase 3, very small changes” value [1] was 375 mg and the “urinary serotonin levels on the second laboratory assay” value ([3]; Example 1, one subject, increase in tyrosine) was “marked increase”. For the same compound, the “change in urinary dopamine levels” value ([2]; Example 1, one subject, increase in tyrosine, dopamine subtherapeutic) was “without much change” and the “highest urinary dopamine established in phase 3 by administration of tyrosine” value ([2]; phase 3, tyrosine as dopamine precursor) was ≤ 475 micrograms of dopamine per gram of creatinine.
